Measured values from patent publication US20230181564A1, “Potent Tetrahydroquinolone Eliminates Apicomplexan Parasites” (The University of Chicago, priority 2020, published 2023).
Converted amounts (≈) assume the structure as drawn.

Experiments:
T. gondii Me49 strain = assay: Established chronic Me49 infection in Balb/C mice, brain cysts; format: in vivo, Toxoplasma gondii; conditions: treatment from day 30 after Me49 infection, IP daily for 14 days; p<0.03, p<0.01
Description: In separate experiments, Balb/C mice were infected IP with 20×10^3 T. gondii Me49 strain tachyzoites. In these separate studies of mice with established chronic infection, after 30 days, IP treatment with JAG21 was begun each day for 14 days. JAG21 was dissolved in DMSO and administered IP in a total volume of 0.05 mL. In experiments when tafenoquine was administered alone or with JAG21 in some groups 3 mg/kg tafenoquine was administered once on day −1 from when JAG21 treatment was initiated. Cysts in brain were quantitated on day 30, 16 days after discontinuing JAG21. Immunoperoxidase staining was performed. Parasite burden was quantitated in two ways. The first was using a positive pixel count algorithm of Aperio ImageScope software. Positive pixels were normalized to tissue area (mm^2). Briefly, automated quantitation was done by counting positive pixels per square area. The entire brain in one section was scanned for each mouse. The Cyst burden was quantitated as units of positive pixels per mm2. The average±S.E.M. numbers of mm2 per slide quantitated was 30.2±1.6 square mm per mouse for this quantification. […] Cysts on each slide for each condition in two biological replicate experiments were also quantitated by 2 separate observers independently and results compared with automated counting, separately.

[1] = Kinetic/aqueous solubility in PBS pH 7.4; format: physicochemical
Description: (§1) PBS Sol/Toxicity pH7.4 refers to solubility of the compound in Phosphate Buffered Saline (PBS) at pH7.4. […] Parasites were RH-YFP expressing tachyzoites (Tachy) and EGS (Brady) strains. Studies of effects of inhibitors on HFF or on T.gondii tachyzoites were performed with triplicate wells in at least two biological replicate experiments. Studies of effects on bradyzoites were performed at least twice in at least two biological replicate experiments. Compounds with much less inhibition of mammalian than T. gondii cytochrome bc in the saffarine enzyme assay (indicated by **) provide potential to further develop compounds, if unanticipated toxicity occurs from JAG21.
(§2) Structure Activity Relationship (SAR) and comparison of effect on T.gondii and HFF enzyme activity. […] The MDCK-MDR1 Permeability Assay was also performed. […] These were measured by Chem Partners.

[2] = tested on: T. gondii RH-YFP tachyzoites; assay: Synergy studies with RH strain YFP tachyzoites; format: cell-based, Toxoplasma gondii
Description: Synergy studies with RH strain YFP Tachyzoites. Atovaquone and pyrimethamine were used to test whether they are synergistic with JAG21. Serial dilutions of the combination of JAG21 and either atovaquone or pyrimethamine were used in an in vitro challenge assay as described above. The EC50 of each compound and the combination of two compounds were determined. The effect of the combination of drugs was calculated with the following formula: C=[A]c/[A]a+[B]c/[B]a. If C is lower than 1, the two compounds tested have synergistic effect; if C is greater than 1, the two compounds tested have antagonist effect and if C is 1 they are additive.

[3] = Metabolic stability in human liver microsomes; format: in vitro ADME
Description: as §1, §2

[4] = tested on: Human Foreskin Fibroblast (HFF); assay: Cytotoxicity assay with WST-1 on HFF; format: cell-based
Description: PBS Sol/Toxicity pH7.4 refers to solubility of the compound in Phosphate Buffered Saline (PBS) at pH7.4. […] Tachy/Brady IC50 was determined in studies in which cultures of parasites in HFF were treated with varying concentrations of the compound and there was 50% inhibition of the replication (number) of parasites. Parasites were RH-YFP expressing tachyzoites (Tachy) and EGS (Brady) strains. Studies of effects of inhibitors on HFF or on T.gondii tachyzoites were performed with triplicate wells in at least two biological replicate experiments. Studies of effects on bradyzoites were performed at least twice in at least two biological replicate experiments. Compounds with much less inhibition of mammalian than T. gondii cytochrome bc in the saffarine enzyme assay (indicated by **) provide potential to further develop compounds, if unanticipated toxicity occurs from JAG21.
Cytotoxicity Assays in parallel with RH Strain T.gondii in vitro studies. Toxicity assays used WST-1 cell proliferation reagent (Roche) as in Fomovska et al. (2012). HFF were grown on a flat, clear-bottomed, black 96-well plate. Confluent HFF were treated with inhibitory compounds at concentrations of 10 μM and 50 μM. Compounds were diluted in IMDM-C, and 20 μL were added to each designated well, with triplicates for each condition. A gradient with 2 fold-decreasing concentrations of DMSO from 10% to 0% in colorless, translucent IMDM-C was used as a control. The plate was incubated for 72 hours at 37° C. 10 μL WST-1 reagent (Roche) were added to each well. Cells were incubated for 30-60 minutes. Absorbance was read using a fluorimeter at 420 nm. A higher degree of color change (and absorbance) indicated mitochondrial activity and cell viability.
Because T. gondii grows inside cells, if a compound were toxic to host HFF then it would make the compound appear to be spuriously effective (Fomovska et al. 2012; Fomovska et al. 2012a), when in actuality only toxicity for the host cell would be measured. Cytotoxicity to HFF was therefore assessed for all compounds at 10 μM. Results of this experiment are in Table 1, toxicity column. A two-way ANOVA and subsequent pairwise comparison found none of the differences in absorbance, compared to the media-DMSO vehicle controls, to be statistically significant (p>0.05). Most of these compounds are not toxic at 10 μM (the limit of solubility) and that cytotoxicity to cells can be attributed to DMSO in the solution, not the compound.

Cc1[nH]c2c(c(=O)c1-c1ccc(Oc3ccc(OC(F)(F)F)cc3)cc1)CCCC2 [JAG021, 2-methyl-3-(4-(4-(trifluoromethoxy)phenoxy)phenyl)-5,6,7,8-tetrahydroquinolin-4-one]
Normal appearing cysts, free organisms and immunoperoxidase stained cysts in brain (T. gondii Me49 strain): marked, statistically significant reduction | solubility ([1]; amorphous compounds): 7 µM (≈ 2.91 µg/mL) | Solubility of the microcrystalline form ([1]; microcrystalline form): 3.5 µM | PBS Sol pH7.4 ([1]; solubility in Phosphate Buffered Saline pH 7.4, first value of cell): 7.07 μM | Combination with atovaquone against RH strain tachyzoites ([2]; isobologram): synergy | Combination with pyrimethamine against RH strain tachyzoites ([2]; no synergy): no antagonism | Remaining in human liver microsomes ([3]; after 45 minutes): > 99% | half-life ([3]; predicted half-life in human liver microsomes, unit in cell, read-out: T1/2 (H)): > 168 h | Toxicity to human cells in the in vitro model (HFF) [4]: not toxic
